Laboratory results taken from PMC11356571, “The Comparative Metabolism of a Novel Hepatocellular Carcinoma Therapeutic Agent, 2,3-Diamino-N-(4-(benzo[d]thiazol-2-yl)phenyl)propanamide, in Human and Animal Hepatocytes” (Metabolites, 2024).

What was measured:
Format in all cases: in vitro ADME
CES1c = biological target: T1, CES1c (Homo sapiens, UniProt P23141); test: Incubation with human recombinant CES1c; conditions: 60 min at 37 °C, ETN101 10 μM or M1 1 μM
T1 construct: purchased Corning Life Sciences (Woburn, MA, USA)
T1 sequence (P23141 18-566 isoform P23141-3 limits assumed): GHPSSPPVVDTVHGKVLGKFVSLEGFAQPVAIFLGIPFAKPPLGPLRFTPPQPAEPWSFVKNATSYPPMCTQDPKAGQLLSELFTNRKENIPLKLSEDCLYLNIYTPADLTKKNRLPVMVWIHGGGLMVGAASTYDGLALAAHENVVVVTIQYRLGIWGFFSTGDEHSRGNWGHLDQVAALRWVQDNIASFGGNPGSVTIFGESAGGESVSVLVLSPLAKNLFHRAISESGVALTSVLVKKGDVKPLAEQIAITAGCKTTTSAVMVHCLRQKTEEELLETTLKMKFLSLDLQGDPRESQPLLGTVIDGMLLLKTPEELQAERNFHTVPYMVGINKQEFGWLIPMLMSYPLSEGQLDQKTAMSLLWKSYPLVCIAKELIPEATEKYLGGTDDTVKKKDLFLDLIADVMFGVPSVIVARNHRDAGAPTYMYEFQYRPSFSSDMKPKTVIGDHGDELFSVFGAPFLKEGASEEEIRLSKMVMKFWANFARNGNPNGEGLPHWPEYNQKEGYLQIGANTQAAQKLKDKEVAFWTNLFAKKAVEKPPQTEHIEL
Protocol: To screen for CES enzymes responsible for the hydrolysis of ETN101 or M1, 50 μL of reaction mixtures containing human cDNA-expressed CES enzymes (CES1b, CES1c, and CES2) at the concentration of 1 mg/mL, 10 μM ETN101, or 1 μM M1 in 0.1 M potassium phosphate buffer were incubated at 37 °C for 0 min or 60 min in triplicate. The reactions were quenched by adding 50 μL of ice-cold acetonitrile containing the internal standard (camptothecin, 10 μg/mL). Following centrifugation at 13,000 rpm for 5 min, a 2 μL aliquot of the supernatant was injected into the LC-MS/MS system. The reliability of the analysis was confirmed by incorporating three different levels of quality control samples at the beginning and end of each analytical batch.
For enzyme characterization, an Agilent 6460 triple quadrupole mass spectrometer coupled with a 1260 HPLC system (Agilent Technologies, Santa Clara, CA, USA) and a Kinetex Halo® C18 column (2.7 μm, 2.1 × 50 mm, Advanced Material Technology, Wilmington, DE, USA) were used for chromatographic separation. The mobile phases comprised 0.1% (v/v) formic acid in water (mobile phase A) and 0.1% formic acid (v/v) in acetonitrile (mobile phase B). […] ETN101, M1, and M2 were detected via MRM using ESI in the positive mode. […]

human hepatocytes = test: Metabolite characterization in human hepatocytes; conditions: human hepatocyte 1 h incubates of ETN101; ND:<1.2E+05 peak area
Protocol: (§1) We mixed 60 μL aliquots of 40 μM ETN101 in incubation medium and an equal volume of human, mouse, rat, dog, or monkey hepatocyte suspension in 96-well plates and incubated for 0 or 1 h in a CO2 incubator at 37 °C. The reactions were quenched by adding 120 µL of ice-cold acetonitrile to each well, and the cell suspension was sonicated for 5 min at 4 °C. Subsequently, centrifugation was carried out at 15,000× g for 10 min at 4 °C. Next, the supernatants were evaporated to dryness using a vacuum concentrator, and residues were re-dissolved in 70 μL of 30% acetonitrile. Each sample (5 μL aliquots) was analyzed using LC–HRMS system.
(§2) For metabolite characterization, a Vanquish HPLC system (Thermo Fisher Scientific, San José, CA, USA) coupled with a Q-Exactive Orbitrap mass spectrometer (Thermo Fisher Scientific Inc., Waltham, MA, USA) was used at Core Research Support Center for Natural Products and Medical Materials at Yeungnam University. […] The eluent from the column was directly injected into the mass spectrometer using a heated electrospray ionization (HESI) source in positive ionization mode. […] The spray voltage was 3.0 kV and the capillary temperature was 320 °C. Full scan MS^1 with a data-dependent MS^2 acquisition mode was applied to obtain MS^1 scan data ranging from m/z 80 to 900, at a resolution of 70,000, whereas data-dependent MS^2 spectra were acquired for the five most abundant peaks per cycle at a resolution of 35,000. The parallel reaction monitoring (PRM) mode was used to obtain the MS^2 spectra of putative metabolites detected at low peak intensities in the data-dependent MS^2 acquisition mode. Data were collected and interpreted using Thermo Scientific Xcalibur™ Software (Thermo Fisher Scientific).

rat hepatocytes = test: Metabolite characterization in rat hepatocytes; conditions: rat hepatocyte 1 h incubates of ETN101; ND:<1.2E+05 peak area
Protocol: as §1, §2

dog hepatocytes = test: Metabolite characterization in dog hepatocytes; conditions: dog hepatocyte 1 h incubates of ETN101; ND:<1.2E+05 peak area
Protocol: as §1, §2

SMILES | Percentage remaining (CES1c) [%] | Relative peak area (%) (human hepatocytes) | Relative peak area (%) (rat hepatocytes) | Relative peak area (%) (dog hepatocytes)
NCC(N)C(=O)Nc1ccc(-c2nc3ccccc3s2)cc1 (centres unmarked) [ETN101, 2,3-diamino-N-(4-(benzo[d]thiazol-2-yl)phenyl)propanamide] | 107.3 | 76.4 | 18.7 | 39.5
Nc1ccc(-c2nc3ccccc3s2)cc1 [M1, 2-(4-aminophenyl)benzothiazole] | 122.7 | 21.0 | 75.2 | 55.9
